The source of these data is ChEMBL document CHEMBL5331089, “Mucormycosis: A hidden mystery of fungal infection, possible diagnosis, treatment and development of new therapeutic agents” (Eur J Med Chem, 2023).

Assay [1] deals with Syncephalastrum racemosum. In words: Antifungal activity against Syncephalastrum racemosum RCMB 016001 assessed as zone of inhibition measured after 24 hrs. Type of assay: functional.
Assay [2] concerns Syncephalastrum racemosum. In words: Antifungal activity against Syncephalastrum racemosum assessed as fungal growth inhibition measured for 24 to 24 hrs by agar well diffusion assay. Type of assay: functional, organism-based.
Assay [3] deals with Rhizomucor pusillus. Description: Antifungal activity against Rhizomucor pusillus clinical isolate assessed as fungal growth inhibition measured after 48 hrs by microtitre plate reader analysis. Type of assay: functional.
In assay [4] the test system is Rhizomucor pusillus. Description: Antifungal activity against Rhizomucor pusillus CN(M)231 assessed as fungal growth inhibition measured after 48 hrs by microtitre plate reader assay. Type of assay: functional.
The subject of assay [5] is Rhizopus arrhizus. Description: Antifungal activity against Rhizopus oryzae clinical isolate assessed as fungal growth inhibition by checkerboard broth microdilution assay. In kind it is functional.
Assay [6] concerns Rhizopus arrhizus. Description: Antifungal activity against Rhizopus oryzae clinical isolate assessed as fungal growth inhibition measured after 24 to 72 hrs by microtitre plate reader analysis. In kind it is functional. As to conditions: time 24-72 hrs.
In assay [7] the test system is Rhizopus arrhizus. In words: Antifungal activity against Rhizopus oryzae CBS 109939 assessed as fungal growth inhibition by checkerboard broth microdilution assay. Type of assay: functional.
Assay [8] deals with Rhizopus arrhizus. In words: Antifungal activity against Rhizopus oryzae clinical isolate RO-969 assessed as fungal growth inhibition measured after 24 hrs. Type of assay: functional.
The subject of assay [9] is Rhizopus arrhizus. In words: Antifungal activity against Rhizopus oryzae clinical isolate RO-275 assessed as fungal growth inhibition measured after 24 hrs. In kind it is functional.
Assay [10] has as its system Rhizopus arrhizus. In words: Antifungal activity against Rhizopus oryzae clinical isolate RO-449 assessed as fungal growth inhibition measured after 24 hrs. Type of assay: functional.
Assay [11] deals with Rhizopus stolonifer. Description: Antifungal activity against Rhizopus stolonifer SZMC 11101 assessed as fungal growth inhibition measured after 24 hrs by microtitre plate reader assay. In kind it is functional.
The test system of assay [12] is Syncephalastrum racemosum. Description: Antifungal activity against Syncephalastrum racemosum SZMC 2011 assessed as fungal growth inhibition measured after 24 hrs by microtitre plate reader assay. Type of assay: functional.
For assay [13], the system named is Mycotypha africana. Description: Antifungal activity against Mycotypha africana NRRL 2978 assessed as fungal growth inhibition measured after 24 hrs by microtitre plate reader assay. In kind it is functional.
The subject of assay [14] is Mucor circinelloides. Description: Antifungal activity against Mucor circinelloides MS 12 assessed as fungal growth inhibition measured after 48 hrs by plate reader assay. In kind it is functional.
Assay [15] relates to Rhizopus arrhizus. In words: Antifungal activity against Rhizopus arrhizus assessed as fungal growth inhibition. Type of assay: functional.
In assay [16] the test system is Absidia. Description: Antifungal activity against Absidia assessed as fungal growth inhibition measured upto 48 hrs by spectrophotometric analysis. Type of assay: functional.
The test system of assay [17] is Mucor circinelloides. In words: Antifungal activity against Mucor circinelloides assessed as fungal growth inhibition measured at 36 to 48 hrs. In kind it is functional. Particulars: time 36-48 hrs.
Assay [18] deals with Rhizomucor miehei. In words: Antifungal activity against Rhizomucor miehei CBS 360.92 assessed as fungal growth inhibition measured after 48 hrs by microtitre plate reader assay. In kind it is functional.
Assay [19] deals with Lichtheimia corymbifera. In words: Antifungal activity against Absidia corymbifera SZMC 2010 assessed as fungal growth inhibition measured after 48 hrs by microtitre plate reader assay. Type of assay: functional.
The subject of assay [20] is Mucorales. Description: Antifungal activity against Mucorales assessed as fungal growth inhibition measured 24 to 48 hrs. Type of assay: functional. Particulars: time 24-48 hrs.
Assay [21] relates to Rhizomucor pusillus. In words: Antifungal activity against Rhizomucor pusillus assessed as fungal growth inhibition measured at 36 to 48 hrs. In kind it is functional. As to conditions: time 36-48 hrs.
Assay [22] has as its system Rhizopus arrhizus. Description: Antifungal activity against Rhizopus oryzae CBS 112.07 assessed as fungal growth inhibition measured after 48 hrs by microtitre plate reader assay. In kind it is functional.
Assay [23] concerns Rhizopus arrhizus. In words: Antifungal activity against Rhizopus oryzae assessed as fungal growth inhibition at 12.5 ug/ml measured after 24 hrs by microtiter plate assay relative to control. Type of assay: functional.
For assay [24], the system named is Mucor circinelloides. Description: Antifungal activity against Mucor circinelloides assessed as fungal growth inhibition at 100 ug/ml measured after 24 hrs by microtiter plate assay relative to control. Type of assay: functional.
The subject of assay [25] is Phycomyces blakesleeanus. In words: Antifungal activity against Phycomyces blakesleeanus assessed as fungal growth inhibition at 6.26 ug/ml measured after 24 hrs by microtiter plate assay relative to control. Type of assay: functional.
Assay [26] can be described thus: Antifungal activity against Rhizopus microsporus var. oligosporus NRRL 514 assessed as fungal growth inhibition measured after 48 hrs by microtitre plate reader assay. In kind it is functional.

SMILES strings stand for the structures. Values after ≈ are worked out from the molar mass of the structure shown. Some results are limits rather than exact numbers.

Consider `CCOC(=O)N1C/C(=C\c2ccc(Cl)cc2)C(=O)[C@@]2(C1)[C@H](c1ccc(Cl)cc1)[C@H]1CCCN1[C@]21C(=O)Nc2ccccc21`, for which the “inhibition zone (IZ)” value in assay [1] came out at 39.46 mm.

Turning to `C[C@@H]1[C@H](O)[C@@H](C)/C=C/C=C/C=C/C=C/C=C/C=C/C=C/[C@H](O[C@@H]2O[C@H](C)[C@@H](O)[C@H](N)[C@@H]2O)C[C@@H]2O[C@](O)(C[C@@H](O)C[C@@H](O)[C@H](O)CC[C@@H](O)C[C@@H](O)CC(=O)O[C@H]1C)C[C@H](O)[C@H]2C(=O)O` [AMPHOTERICIN B], the “inhibition zone (IZ)” value in assay [1] was determined as 22 mm. In addition, in [2], the IC50 (as a rule, the concentration at which inhibition is half-maximal) was found to be 14.3 µg/mL (≈ 15.4 µM). Besides, the MIC (in general, the lowest concentration that inhibits growth of the organism) in [2] (time 24-24 hrs) was determined as 1.95 µg/mL (≈ 2.11 µM); in [3] it was 2 µg/mL (≈ 2.16 µM); in assay [4], 1 µg/mL (≈ 1.08 µM); in [5], 2 µg/mL. In assay [3], the MIC90 (as a rule, an inhibitory concentration at the 90% level, which refers to growth in some studies and to a panel of isolates in others) was 1 µg/mL (≈ 1.08 µM).

`CC(C)c1c(C(=O)Nc2ccccc2)c(-c2ccccc2)c(-c2ccc(F)cc2)n1CC[C@@H](O)C[C@@H](O)CC(=O)O` [ATORVASTATIN]: the MIC was 32 µg/mL (≈ 57.3 µM) in assay [6]; 32 µg/mL in assay [7]; 64 µg/mL (≈ 115 µM) in [8]; 64 µg/mL (≈ 115 µM) in assay [9]; 64 µg/mL (≈ 115 µM) in assay [10]; 64 µg/mL (≈ 115 µM) in assay [11]. In addition, the minimum inhibitory concentration (MIC) in assay [12] came out at 32 µg/mL (≈ 57.3 µM); in [13], 8 µg/mL (≈ 14.3 µM); in assay [14], 16 µg/mL (≈ 28.6 µM).

Consider `OC(Cn1cncn1)(Cn1cncn1)c1ccc(F)cc1F` [FLUCONAZOLE], for which, in [1], the “inhibition zone (IZ)” value worked out at 22 mm.

In the case of `Nc1c(-c2cc(Cc3ccc(COc4ccccn4)cc3)no2)ccc[n+]1COP(=O)([O-])O` [FOSMANOGEPIX], in [15], the MEC stood at 0.25 µg/mL.

For `CCC(C)n1ncn(-c2ccc(N3CCN(c4ccc(OCC5COC(Cn6cncn6)(c6ccc(Cl)cc6Cl)O5)cc4)CC3)cc2)c1=O` (stereo unspecified) [ITRACONAZOLE], the minimum inhibitory concentration (MIC) in assay [16] was 0.03 µg/mL (≈ 0.0425 µM); in [17] it was above 8 µg/mL.

As for `CC[C@H](C)C(=O)O[C@H]1C[C@@H](C)C=C2C=C[C@H](C)[C@H](CC[C@@H](O)C[C@@H](O)CC(=O)O)[C@H]21` [LOVASTATIN ACID], the MIC90 in assay [4], in assay [18] and in [19] was 11 µg/mL (≈ 26 µM) throughout.

On to `CC[C@@H]([C@H](C)O)n1ncn(-c2ccc(N3CCN(c4ccc(OC[C@@H]5CO[C@@](Cn6cncn6)(c6ccc(F)cc6F)C5)cc4)CC3)cc2)c1=O` [POSACONAZOLE], for which the MIC was 1 µg/mL (≈ 1.43 µM) in [20] and above 8 µg/mL in assay [21].

In the case of `CC(C)c1nc(N(C)S(C)(=O)=O)nc(-c2ccc(F)cc2)c1/C=C/[C@@H](O)C[C@@H](O)CC(=O)O` [ROSUVASTATIN], the MIC90 worked out at 96 µg/mL (≈ 199 µM) in [22], 11 µg/mL (≈ 22.8 µM) in assay [4], 11 µg/mL (≈ 22.8 µM) in assay [18] and 33 µg/mL (≈ 68.5 µM) in [19]. The MIC in assay [11] is 64 µg/mL (≈ 133 µM); in assay [12], 32 µg/mL (≈ 66.5 µM); in assay [13] it was 8 µg/mL (≈ 16.6 µM); in assay [14], 32 µg/mL (≈ 66.5 µM).

Regarding `CCC(C)(C)C(=O)O[C@H]1C[C@@H](C)C=C2C=C[C@H](C)[C@H](CC[C@@H]3C[C@@H](O)CC(=O)O3)[C@H]21` [SIMVASTATIN], the MIC90 in [4] came to 11 µg/mL (≈ 26.3 µM); in assay [19], 96 µg/mL (≈ 229 µM). The results for the MIC in assay [7] and in assay [12] were 64 µg/mL and 8 µg/mL (≈ 19.1 µM), respectively.

As for `CO[C@H]1C[C@@H]2CC[C@@H](C)[C@@](O)(O2)C(=O)C(=O)N2CCCC[C@H]2C(=O)O[C@H]([C@H](C)C[C@@H]2CC[C@@H](O)[C@H](OC)C2)CC(=O)[C@H](C)/C=C(\C)[C@@H](O)[C@@H](OC)C(=O)[C@H](C)C[C@H](C)/C=C/C=C/C=C/1C` [SIROLIMUS], the inhibition (as a rule, the drop in the measured response relative to a control, in per cent) at 12.5 µg/mL in assay [23] is at most 80%. Further, the inhibition at 100 µg/mL in assay [24] is at most 80%. Also, the inhibition at 6.26 µg/mL in assay [25] was at most 80%.

Consider `CCC(C)(C)C(=O)O[C@H]1C[C@@H](C)C=C2C=C[C@H](C)[C@H](CC[C@@H](O)C[C@@H](O)CC(=O)O)[C@H]21` [TENIVASTATIN], for which the MIC90 in assay [4] is 1.2 µg/mL (≈ 2.75 µM); in assay [19], 11 µg/mL (≈ 25.2 µM); in [26] it was 33 µg/mL (≈ 75.6 µM).

Take `C[C@@H](c1ncncc1F)[C@](O)(Cn1cncn1)c1ccc(F)cc1F` [VORICONAZOLE]: the MIC in [17] and in assay [21] was above 8 µg/mL each time.
